Structures can show the parent of a compound that is named as a salt.
Each compound was assayed on S. aureus strain S3 (assay: Cell growth assay, first assay (gentamycin potentiation)). Conditions: gentamycin alone, sublethal concentration 0.3 μg/mL.
Assay type: cell-based
Method: Cell Growth Assay. This assay measures the ability of cells to grow in the presence of a sublethal dose (i.e., a dose below the MIC) of an antibiotic agent (or test agent, or combination thereof). In general, cells are grown, typically to saturation, and are then diluted and inoculated onto rich medium and onto medium containing a sublethal dose of antibiotic agent. Plates are then grown overnight, and OD600 is measured after overnight growth, as compared with blank plate. If desired, a test agent can be added to the plate, either alone or in combination with the known antibiotic agent, and the ratio of OD600 in the presence of the test agent to OD600 in the absence of the test agent, can be determined. Additional ratios that can be useful as controls include, for example, OD600 in the presence vs. absence of antibiotic agent; OD600 in the absence of any agent vs. in the presence of both antibiotic agent and test agent; etc.
Actinomycin D Potentiates Gentamycin: In the first assay, S. aureus strain S3 was used in a cell growth assay as described in FIG. 4. The strain was grown in the presence and absence of gentamycin and actinomycin D. Various concentrations of gentamycin and actinomycin D were used. Specifically, 40 μL gentamycin stock (5 mg/mL) was first diluted in 360 μL H2O. Then, 200 μL of the diluted gentamycin solution was further mixed with 200 μL H2O. […]

| Compound | growth of S. aureus strain S3 |
| --- | --- |
| gentamycin | grew equally well |

The compounds below were run against T1, E. coli RecA protein (Escherichia coli, UniProt P0A7G6) (assay: High throughput RecA-luciferase assay (ATP remaining after RecA ATPase reaction)). Conditions: compounds identified from the screen of more than 22,000 compounds.
T1 construct: purchased Epicentre, Madison, Wis
T1 sequence (P0A7G6 2-353): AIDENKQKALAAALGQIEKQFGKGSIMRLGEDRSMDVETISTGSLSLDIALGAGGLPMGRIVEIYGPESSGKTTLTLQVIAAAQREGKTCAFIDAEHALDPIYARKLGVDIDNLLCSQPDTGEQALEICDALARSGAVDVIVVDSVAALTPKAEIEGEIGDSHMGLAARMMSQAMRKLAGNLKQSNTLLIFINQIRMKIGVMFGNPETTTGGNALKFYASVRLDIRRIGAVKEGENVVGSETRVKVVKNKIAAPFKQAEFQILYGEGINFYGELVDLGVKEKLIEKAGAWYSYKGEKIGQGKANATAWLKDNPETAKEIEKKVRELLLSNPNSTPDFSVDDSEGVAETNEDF
Assay type: biochemical
Method: RecA is a DNA-dependent ATPase (i.e., it catalyzes the reaction adenosine triphosphate [ATP]→adenosine diphosphate [ADP]). An assay was developed for RecA ATPase activity based on detection of the amount of ATP remaining in a reaction mixture following incubation of RecA protein, DNA, and ATP. In an exemplary assay, E. coli RecA protein is incubated in reaction buffer with DNA, ATP, and any test compound or compounds for a measured amount of time. The quantity of ATP remaining after the RecA reaction can be quantitated using a subsequent luciferase assay. The luciferase emits more light as more ATP is available. In some embodiments, the amount of ATP remaining can be compared to controls containing either a known inhibitor (full inhibition control) or no test compound (full activity control). In some embodiments, a positive control (having no DNA added to the well) and negative control (having DNA and no compounds) are run with each screen. Positive responses are based upon the percent reduction of activity of luciferase, with a high percentage representing increased RecA inhibition. Percent inhibition can be calculated according to the following equation: […]
An in vitro RecA-luciferase assay was used to screen for RecA inhibitors. RecA is a DNA-dependent ATPase (i.e., it catalyzes the reaction adenosine triphosphate [ATP]→adenosine diphosphate [ADP]). An assay was developed for RecA ATPase activity based on detection of the amount of ATP remaining in a reaction mixture following incubation of RecA protein, DNA, and ATP. […] The quantity of ATP remaining after the RecA reaction was measured by a subsequent luciferase assay. The luciferase emit more light as more ATP was available.
For high throughput screening, the following reagents were added to each well of a 384 well plate:
The reagents were mixed and incubate at room temperature for about 5 minutes. Then, 5.0 μL of ATP mix, as indicated below, were added to each well.
The mix was incubated at room temperature for about 90-120 minutes. 12.5 μL of Kinase-Glo® plus (Promega) were added to each well and incubated at room temperature for about 10 minutes or more. The luminescence of the reaction was measured.
A positive control (having no DNA added to the well) and negative control (having DNA and no compounds) were run with each screen. Positive responses were based upon the percent reduction of activity of luciferase, with a high percentage representing increased RecA inhibition. Percent inhibition can be calculated according to the following equation: […]

| Compound | activity in the RecA-luciferase screen (in words) |
| --- | --- |
| C[n+]1c2cc(N)ccc2cc2ccc(N)cc21.[Cl-] [acriflavinium hydrochloride] | particularly active |
| Nc1c2ccccc2nc2ccccc12 [acrisorcin] | particularly active |
| Oc1c(Cl)cc(Cl)cc1Sc1cc(Cl)cc(Cl)c1O [bithionol] | particularly active |
| COc1cc2cc3c4cc(OC)c(OC)cc4cc[n+]3c(C)c2cc1OC.O.[Cl-] [coralyne chloride hydrate] | particularly active |
| COc1cc2cc3c4cc(OC)c(OC)cc4cc[n+]3c(C)c2cc1OC.[Cl-] [coralyne chloride] | particularly active |
| COc1cccc2c1C(=O)c1c(O)c3c(c(O)c1C2=O)C[C@@](O)(C(C)=O)C[C@@H]3O[C@H]1C[C@H](N)[C@H](O)[C@H](C)O1 [daunorubicin hydrochloride] | particularly active |
| Cc1cc(N)c2ccccc2[n+]1CCCCCCCCCC[n+]1c(C)cc(N)c2ccccc21 [dequalinium chloride] | particularly active |
| Cc1c2ccncc2c(C)c2c1[nH]c1ccccc12 [ellipticine] | particularly active |
| Oc1c(Cl)cc(Cl)c(Cl)c1Cc1c(O)c(Cl)cc(Cl)c1Cl [hexachlorophene] | particularly active |
| CC[n+]1c(-c2ccccc2)c2cc(N)ccc2c2ccc(N)cc21 [homidium bromide] | particularly active |
| Cl.Cl.O=C1c2c(O)ccc(O)c2C(=O)c2c(NCCNCCO)ccc(NCCNCCO)c21 [mitoxathrone hydrochloride] | particularly active |
| CC[N+](C)(CC)CCC[n+]1c(-c2ccccc2)c2cc(N)ccc2c2ccc(N)cc21.[I-].[I-] [propidium iodide] | particularly active |
| CCN(CC)CCCC(C)Nc1c2ccc(Cl)cc2nc2ccc(OC)cc12 (stereo not drawn) [quinacrine hydrochloride] | particularly active |
| doxorubicin hydrochloride | particularly active |
